Results: PMC5668067, “Phase I dose-escalation study of the c-Met tyrosine kinase inhibitor SAR125844 in Asian patients with advanced solid tumors, including patients with MET-amplified gastric cancer” (Oncotarget, 2017)
Entries after “also recorded” stand apart in the source; their conditions may differ.

How the values were obtained:
[1] = tested on: Asian patients with solid tumors; assay: phase I dose escalation: dose-limiting toxicities, MTD and recommended dose; type: in vivo
Method: This was an open-label, phase I, multicenter study consisting of a dose-escalation phase (to determine the MTD of SAR) and a dose-expansion phase (to evaluate the antitumor activity of SAR at the RD in patients with MET-amplified tumors, including gastric cancer).
The model was run based on DLTs occurring during the first cycle of treatment.
SAR was administered by weekly intravenous infusion on days 1, 8, 15, and 22 of each 28–day cycle. The starting dose was 260 mg/m^2, and dose increments of 30% were made, to a maximum of 570 mg/m^2. Treatment continued until disease progression, unacceptable toxicity, or consent withdrawal. Patients were screened within 21 days before the first administration and followed for 30 days after the last administration.
A DLT was defined as grade 4 neutropenia for ≥ 7 consecutive days, febrile neutropenia, grade 4 thrombocytopenia or grade 3 thrombocytopenia with bleeding requiring a transfusion, any grade ≥ 3 nonhematologic event not easily managed or corrected by medical intervention, or SAR-related toxicity resulting in two or more missed doses.
The safety population consisted of all patients exposed to SAR, regardless of the amount of treatment administered.

[2] = tested on: solid tumors, including MET-amplified gastric cancer; assay: phase I antitumor activity (RECIST 1.1); type: in vivo, human
Method: Tumor response was evaluated by the Response Evaluation Criteria In Solid Tumors version 1.1, which define complete response as disappearance of all target lesions, partial response and progressive disease as a minimally 30% decrease or 20% increase, respectively, in the sum of diameters of target lesions, and stable disease as neither sufficient shrinkage to qualify for partial response nor sufficient increase to qualify for progressive disease. Tumor burden was assessed from computerized tomography or magnetic resonance imaging scans performed at baseline, at the end of cycle 1, and every 8 weeks thereafter. Patients evaluable for efficacy received at least one cycle of SAR, with a minimum of two infusions, and had undergone efficacy assessment at baseline and once or more after that.
In the dose-expansion cohort, MET amplification in tumor tissue was evaluated by a FISH assay. A tumor was considered MET amplified if ≥ 10% of cells had more than four gene copies of MET and the MET:CEP7 ratio was ≥ 2. Total c-MET protein expression was evaluated by immunohistochemistry, calculating the percentage of tumor cells with an immunohistochemistry score of 2+ or 3+ membrane staining. […] Immunohistochemistry was performed on fresh or archival tumor tissue.

[3] = tested on: xenograft models of MET-amplified human gastric tumors; set-up: method as in PMID 25504634; conditions: cited from earlier work
[4] = tested on: patients with solid tumors; set-up: method as in ref 9 = [9]; 9 Angevin E Spitaleri G Hollebecque A De Pas T Soria JC Harnois M Mazuir F Assadourian S De Marinis F A first-in-human (FIH) phase I study of SAR125844, a novel selective MET kinase inhibitor, in pati; conditions: cited from earlier work
[5] = dose-expansion cohort (N = 19), 570 mg/m^2
[6] = two xenograft models, intravenous single-agent

O=C(NCCN1CCOCC1)Nc1nc2ccc(Sc3nnc4ccc(-c5ccc(F)cc5)nn34)cc2s1 [SAR125844]
recommended dose (RD) ([1]; Asian patients, weekly i.v. infusion): 570 mg/m^2 | maximum tolerated dose (MTD) ([1]; dose-escalation cohort, 260–570 mg/m^2 weekly i.v.): not reached | dose-limiting toxicities (DLTs) ([1]; dose-escalation phase, listed as SAR): No dose-limiting toxicities; also recorded: No DLTs | patients with a DLT ([1]; expansion cohort, 570 mg/m^2, of 19 patients, cycle 1, transaminase and creatinine increases): one | patients with early disease progression leading to treatment discontinuation in cycle 1 ([2]; dose-escalation cohort): 11 patients | objective responses ([2]; dose-escalation cohort (unselected population, N = 19)): No objective responses | median time to tumor progression ([2]; dose-escalation cohort, 340 mg/m^2): 0.9 months | median time to tumor progression ([2]; dose-escalation cohort, 440 mg/m^2): 1.7 months | patients with stable disease ([2]; dose-escalation cohort, after 1 month of treatment): seven | patients with stable disease ([2]; dose-escalation cohort, after 1 month of treatment, listed as SAR): 7 patients | patients with progressive disease [2, 5]: 10 patients | patients with stable disease [2, 5]: seven | confirmed partial response / objective response rate ([2]; dose-expansion cohort, MET-amplified tumors, 570 mg/m^2, two of 19 patients): 10.5% | patients with unconfirmed partial response ([2]; dose-expansion cohort, gastric cancer): one | median time to tumor progression ([2]; dose-expansion cohort, median (range)): 0.92 (0.4–9) months | median time to tumor progression ([2]; gastric cancer subpopulation of dose-expansion cohort, median (range)): 1.18 (0.4–9) months | overall response rate (partial response rate) ([2]; gastric cancer subpopulation with MET amplification, two of 14 patients): 14.3% | toxicity profile ([3]; preclinical): acceptable toxicity profile | c-Met kinase inhibition in xenograft tumors [3, 6]: c-Met kinase inhibition | tumor regression [3, 6]: dose-dependent tumor regression | recommended dose (RD) ([4]; first-in-human study, Western countries, intravenously): 570 mg/m^2 per week | tolerability profile ([4]; first-in-human study, doses 50‒740 mg/m^2): acceptable tolerability profile | antitumor activity ([4]; one patient with lung adenocarcinoma and MET amplification): Preliminary evidence of antitumor activity
